“Also recorded” adds a separate entry of the source. Like-named read-outs stand apart in the source and are kept apart here.
What was measured:
[1] = tested on: G494S TynA with A81T FeaR; assay type: cell-based, E. coli MG1655; settings: G494S*
Method: (§1) Flow cytometry was performed as previously described. […] Cytometry data was gated by forward and side scatter.

G494S TynA and A81S FeaR = assay type: cell-based, E. coli MG1655; settings: G494S TynA and A81S FeaR; 5 h and 24 h; FIG. 23A-B
Method: as §1

[2] = tested on: wild-type TynA with W110S FeaR; assay type: cell-based, E. coli MG1655; settings: W110S FeaR; 24 h; FIG. 28C
Method: as §1

[3] = tested on: wild-type TynA with W110C FeaR; assay type: cell-based, E. coli MG1655; settings: W110C FeaR; 24 h; FIG. 28D
Method: as §1

[4] = tested on: G415H TynA with wild-type FeaR; assay type: cell-based, E. coli MG1655; settings: G415H
Method: as §1

[5] = tested on: G494S TynA with wild-type FeaR; assay type: cell-based, E. coli MG1655; settings: G494S TynA, wild-type FeaR; 5 h and 24 h; FIG. 18A-B
Method: as §1

[6] = tested on: wild-type TynA with M83Q FeaR; assay type: cell-based, E. coli MG1655; settings: M83Q FeaR; 24 h; FIG. 28A
Method: as §1

[7] = tested on: wild-type TynA with L108T FeaR; assay type: cell-based, E. coli MG1655; settings: L108T FeaR; 24 h; FIG. 28B
Method: as §1

[8] = tested on: wild-type TynA with A81T FeaR; assay type: cell-based, E. coli MG1655; settings: wild-type TynA; 1 mM, 24 h; FIG. 21
Method: as §1

FeaR (TynA inactivated) = settings: 0.5 mM, FIG. 3C
Method: (§2) To develop sensors for aromatic amines, the TynA-FeaR system was first characterized in EcN. A sensor plasmid was constructed, which consisted of constitutively expressed TynA and FeaR from E. coli MG1655, and a reporter plasmid, which consisted of GFP under the control of PtynA (see e.g., FIG. 3B). […] Next, the sensitivity and selectivity to different ligands was characterized.
For fluorescence-based quantification, single colonies were transferred to 5 mL LB medium (VWR, Radnor, Pa., USA) in 14 mL round bottom tubes and incubated overnight at 250 rpm and 37° C. […]
Flow cytometry was performed as previously described. […] The fluorescence of the samples was measured using a Millipore Guava EasyCyte High Throughput flow cytometer with a 488 nm excitation laser and 512/18 nm emission filter. […] FlowJo (TreeStar Inc.) was used to obtain the arithmetic mean of the fluorescence distribution. The averages of the arithmetic means were calculated from three biological replicates. The average fluorescence of the non-fluorescent wild-type cell was subtracted from each sample to obtain the final fluorescence (au) values (Equation 2). To obtain the relative fluorescence in FIG. 6A-FIG. 6C, fluorescence values for each variant were normalized to the fluorescence of the wild-type sensor using Equation 3.

[9] = tested on: wild-type TynA and A81L FeaR; experiment: microbe, parasite or virus in culture; assay type: cell-based, E. coli MG1655; settings: A81L FeaR
Method: as §1

[10] = tested on: wild-type TynA with A81P FeaR; experiment: microbe, parasite or virus in culture; assay type: cell-based, E. coli MG1655; settings: A81P FeaR; 5 h and 24 h; FIG. 25A-B
Method: as §1

TynA-FeaR system = experiment: microbe, parasite or virus in culture; settings: for EC50: read-out: KA (half maximal constant); for Fmax / Fmin / n (Hill coefficient): wild-type TynA and FeaR, pCX008, pHJY022
Method: as §2
For fluorescence-based quantification, single colonies were transferred to 5 mL LB medium (VWR, Radnor, Pa., USA) in 14 mL round bottom tubes and incubated overnight at 250 rpm and 37° C. Unless otherwise specified, experimental cultures were prepared by diluting overnight cultures 100× into 0.6 mL M9 minimal medium supplemented with 1 mM MgSO4, […]), and 2% w/v glycerol as well as the respective ligands (DA, PEA, Tyra, and Trypta) in 2 mL 96-deep well plates. Cultures were grown for 24 h at 37° C. and 250 rpm. After 5 h and 24 h of incubation, samples were obtained from the cultures for flow cytometry analysis.
Flow cytometry was performed as previously described. Culture samples were collected and diluted to a final OD600 of ˜0.005-0.01 in […] filtered phosphate-buffered saline supplemented with 2 mg/ml kanamycin in 96-well assay microplates (U-bottom, REF-353910 from BD Biosciences, San Jose, Calif., USA). The fluorescence of the samples was measured using a Millipore Guava EasyCyte High Throughput flow cytometer with a 488 nm excitation laser and 512/18 nm emission filter. Cytometry data was gated by forward and side scatter. FlowJo (TreeStar Inc.) was used to obtain the arithmetic mean of the fluorescence distribution. The averages of the arithmetic means were calculated from three biological replicates. The average fluorescence of the non-fluorescent wild-type cell was subtracted from each sample to obtain the final fluorescence (au) values (Equation 2). To obtain the relative fluorescence in FIG. 6A-FIG. 6C, fluorescence values for each variant were normalized to the fluorescence of the wild-type sensor using Equation 3.
The Hill equation (Equations 4 and 5) was used to fit lines to the fluorescence data. The model was fit to the experimentally collected data by minimizing the root mean square error (RMSE; Equation 6).

[11] = tested on: TynA-KP with FeaR-KA I109N; experiment: GFP fluorescence from PtynA-MG with TynA-KP and FeaR-KA I109N; assay type: cell-based, Klebsiella aerogenes
Description: FIG. 32. […] Sensor system with PtynA-MG, TynA-KP and FeaR-KA was chosen as the wild type (WT) for further directed evolution. TynA-KP was employed to reduce the possible interference from DA during evolution processes. Values and error bars are the average and standard deviation of biological triplicate, respectively.
FIG. 33A-FIG. 33B. […] The expression of PtynA-MG was regulated by the TynA-KP with FeaR-KA I109N mutant. Points represent experimental data while lines represent the fitted curves. […] Values and error bars are the average and standard deviation of biological triplicate, respectively.

NCCc1ccc(O)c(O)c1 [Dopamine, dopamine]
response ([1]; 5 h, FIG. 17A): lack of response
response ([1]; 24 h, FIG. 4C): lack of response
response (G494S TynA and A81S FeaR): lack of response
response [2]: lack of response
response [3]: lack of response
response ([4]; 5 h, FIG. 17B): lack of response
response ([4]; 24 h, FIG. 4D, listed as DA): lack of response; also recorded: minimal response
response [5]: lack of response
response [6]: lack of response
response [7]: lack of response
effect of the A81T FeaR mutation on the response of the sensor [8]: significantly reduced
induction of PtynA (FeaR (TynA inactivated)): eliminated
response ([9]; 5 h, FIG. 24): lack of response
response ([9]; 24 h, FIG. 5C): lack of response
response [10]: lack of response
fold increase in GFP expression (TynA-FeaR system; 0.5 mM, in the presence of TynA, FIG. 3C): 410 fold
EC50 (TynA-FeaR system; Escherichia coli, 5 h): 28 µM
EC50 (TynA-FeaR system; Escherichia coli, 24 h): 68 µM
fold induction at 1250 µM (TynA-FeaR system; Escherichia coli, read-out: fold induction of the reporter): ~900
Fmax (TynA-FeaR system; FIG. 3D, 24 h induction): 881
Fmin (TynA-FeaR system; FIG. 3D, 24 h induction): 0.1
n (Hill coefficient) (TynA-FeaR system; FIG. 3D, 24 h induction): 3
Fmax (TynA-FeaR system; FIG. 14, 5 h induction): 258
Fmin (TynA-FeaR system; FIG. 14, 5 h induction): 4.4
n (Hill coefficient) (TynA-FeaR system; FIG. 14, 5 h induction): 1.5
response ([11]; FeaR-KA I109N, 5 h and 24 h, FIG. 33A-B): lack of response
induction of fluorescence ([11]; I109N variant, 0.5 mM, 24 h, FIG. 32): not

— US20220372585A1, “Sensors for Aromatic Compounds and Methods of Making and Using Same” (Washington University, priority 2021, published 2022)
